Results taken from the supplement of paper PMC10307832.

Columns and labels:
Assay in all cases: relative viability (nuclei count vs DMSO), 5 days (fraction); higher = more cells survive
[1] = compound: c1ccc2c(CCNc3ccc(Nc4ccncc4)cc3)c[nH]c2c1 [Serdemetan] + NC(=O)Nc1cc(-c2cccc(F)c2)sc1C(=O)N[C@H]1CCCNC1 [AZD7762] (partner 0.2 µM)
How it was run: (§1)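 One day after seeding in 1536-well plates, lung cancer cell lines were dosed by pin tool. Dosing was either single-drug or a fixed anchor-drug dose plus five library-drug doses (not always all listed) in √10 steps. After 5 days, nuclei were stained in one fix-and-stain step and counted on 4× images, and relative viability is the nuclei count of treated wells over that of vehicle wells, given as the median of duplicate plates.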

[2] = compound: C1CC(C2=C(C1)C3=C(N2)C=CC(=C3)Cl)C(=O)N [Selisistat] + C[C@@H](Oc1cc(-c2cnn(C3CCNCC3)c2)cnc1N)c1c(Cl)ccc(F)c1Cl [Crizotinib] (partner 1 µM)
How it was run: as §1

[3] = compound: c1ccc2c(CCNc3ccc(Nc4ccncc4)cc3)c[nH]c2c1 [Serdemetan] + CC(C)C[C@H](NC(=O)[C@H](Cc1ccccc1)NC(=O)c1cnccn1)B(O)O [Bortezomib] (partner 0.002 µM)
How it was run: as §1

[4] = compound: C1CC(C2=C(C1)C3=C(N2)C=CC(=C3)Cl)C(=O)N [Selisistat] + CC(C)C[C@H](NC(=O)[C@H](Cc1ccccc1)NC(=O)c1cnccn1)B(O)O [Bortezomib] (partner 0.002 µM)
How it was run: as §1

Cell Line	relative viability ([1]; first compound 0.04 µM)	relative viability ([1]; first compound 0.1265 µM)	relative viability ([1]; first compound 0.4 µM)	relative viability ([1]; first compound 1.265 µM)	relative viability ([1]; first compound 4 µM)	relative viability ([2]; first compound 0.4 µM)	relative viability ([2]; first compound 1.265 µM)	relative viability ([2]; first compound 4 µM)	relative viability ([2]; first compound 12.65 µM)	relative viability ([2]; first compound 40 µM)	relative viability ([3]; first compound 0.04 µM)	relative viability ([3]; first compound 0.1265 µM)	relative viability ([3]; first compound 0.4 µM)	relative viability ([3]; first compound 1.265 µM)	relative viability ([3]; first compound 4 µM)	relative viability ([4]; first compound 0.4 µM)	relative viability ([4]; first compound 1.265 µM)	relative viability ([4]; first compound 4 µM)	relative viability ([4]; first compound 12.65 µM)	relative viability ([4]; first compound 40 µM)
NCI-H2342	0.516	0.467	0.545	0.39	0.457															
SK-MES-1						1.12	0.993	1.05	0.875	0.959										
HCC-366	0.124	0.0954	0.0688	0.0374	0.0632	0.58	0.681	0.4	0.521	0.562	1.08	1.04	1.03	0.0358	0.0541	1.07	1.02	0.955	0.98	1.02
201T	0.624	0.502	0.846	0.378	0.422	1.04	1.03	0.986	1.02	1.01	1.08	1.14	1.1	1.05	1.06	1.13	1.08	1.1	1.11	1.08
HCC-827	0.218	0.157		0.18	0.17	0.954	0.873	0.946	0.838	0.883	1.05	0.959		0.954	1.01	1.06	1.04	0.994	0.886	0.951
NCI-H647	0.556	0.382	0.396	0.41	0.285	1.16	1		1.01	0.948	0.95	0.914	0.95	0.559	0.47	0.95	0.987		0.885	1.16
NCI-H2023						0.69	0.651	0.636	0.68	0.576	0.74	0.985	0.9	0.485	0.28	0.978	0.961	0.849	0.95	0.928
NCI-H520						0.743	0.714	0.873	0.742	0.796	0.752	0.561	0.615	0.476	0.572	0.525	0.495	0.619	0.648	0.738
RERF-LC-KJ	1.03	0.547	0.806	0.897	0.94	0.826	0.879	0.835	0.771	0.716	1.19	1.16	1.06	1.03	0.797	1.18	1.02	0.974	1	1.05
A-427	0.759	0.671	0.664	0.538	0.495	0.874	0.819	0.841	0.917	0.921	0.954	1.03	0.959	0.662	0.598	1.02	0.981	1.01	1.02	0.952
NCI-H441	1.28	1.19	1.05	0.858	0.548	0.754	0.652	0.915	0.673	0.806	0.459	0.784	0.906	0.569	0.643	0.74	0.588		0.467	0.482
NCI-H1703	0.176	0.121	0.121		0.108	0.578	0.556	0.626	0.559	0.904	0.345	0.313	0.396	0.362	0.262	0.293	0.286	0.301	0.266	0.332
NCI-H1792	0.674	0.59	0.63	0.326	0.324	1.01	1.02		0.907	0.965	0.953	0.958	0.936	0.347	0.726	0.967	1		0.71	1.07
Calu-6						0.778	0.602	0.764	0.682	0.633	1.1	0.969	1.04	0.864	0.672	0.998	0.961	0.992	0.902	0.932
SK-LU-1						1.02	0.987	1.1	1.01	1.09	1.15	0.921	1.24	1.1	0.988	1.23		1.27	0.998	1.75
PC-3 [JPC-3]	0.823	0.759	0.802	0.591	0.71	1.02	1.01	0.936	1.01	1.07	0.868	0.861		0.755	0.812	0.796	0.788	0.828	0.81	0.885
EMC-BAC-2	1.08	1.1	1.07	0.955	0.827	0.78	0.74	0.742	0.582	0.755	1.07	1.06	1.04	0.907	0.939	1.08	1.05	1.01	1.05	1.04
LK-2	0.454	0.304	0.357	0.269	0.251	0.234	0.255	0.245	0.231	0.24										
NCI-H2126	0.924	1.04	0.923	0.932	1.04	1.1	0.976	0.992	1.01	1.12	1.12	1.12	1.11	0.934	1.12	1.2	1.15	1.12	1.12	1.17
